Measured values published in patent US9839642B2, “Beta-tetrazolyl-propionic acids as metallo-beta-lactamase inhibitors” (priority 2014, dated 2017).
pIC50: −log10 of the molar value.

Columns and labels:
[1] = molecular target: IMP-1 (Serratia marcescens, UniProt P52699); assay: Enzyme activity: determination of IC50, fluorescence assay with CCF2-FA substrate; format: biochemical; conditions: IMP-1 enzyme 2 pM, CCF2-FA 1.25 μM, 2 hours at 25° C.; read-out: IMP1 IC50
Summary of the method: (§1)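 100 mM KH2PO4 pH 7 + 0.005% Tween-20 + 10 μM ZnSO4; CCF2-FA 1.25 μM; NDM-1 1 pM, IMP-1 2 pM, VIM-1 30 pM; cpd 20–0.00063 μM final, DMSO 1:50. 2 h, 25° C. Ex 405/em 460 nm; IC50, 4-param fit.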

[2] = molecular target: NDM-1 (Klebsiella pneumoniae, UniProt C7C422); assay: as above; format: biochemical; conditions: NDM-1 enzyme 1 pM, CCF2-FA 1.25 μM, 2 hours at 25° C.; read-out: NDM1 IC50
Summary of the method: as §1

[3] = molecular target: VIM-1 (Pseudomonas aeruginosa, UniProt A0A0F7KYQ8); assay: as above; format: biochemical; conditions: VIM-1 enzyme 30 pM, CCF2-FA 1.25 μM, 2 hours at 25° C.; read-out: VIM1 IC50
Summary of the method: as §1

[4] = test system: Escherichia coli expressing NDM-1 (CLB30016); assay: Antibiotic potentiation activity: synergistic concentration (MITC95) with imipenem, growth by OD600; format: cell-based; conditions: E. coli CLB30016 (NDM-1), 95% inhibition of growth
Summary of the method: (§2)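 MITC95 = lowest inhibitor concentration giving 95% growth inhibition, read by absorbance after 22–24 h at 35° C. Compound range 200 μM to 0.195 μM, imipenem fixed at 1 or 4 μg/ml, bacteria in 1.1×CAMHB from saline suspension diluted 1:100.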

[5] = test system: Klebsiella pneumoniae expressing VIM-1 (IHMA599644); assay: as above; format: cell-based; conditions: K. pneumoniae IHMA599644 (VIM-1), 95% inhibition of growth
Summary of the method: as §2

[6] = test system: Serratia marcescens expressing IMP-1 (CL5741); assay: as above; format: cell-based; conditions: S. marcescens CL5741 (IMP-1), 95% inhibition of growth
Summary of the method: as §2

IMP-1, sequence (P52699 19-246, looked up, species assumed): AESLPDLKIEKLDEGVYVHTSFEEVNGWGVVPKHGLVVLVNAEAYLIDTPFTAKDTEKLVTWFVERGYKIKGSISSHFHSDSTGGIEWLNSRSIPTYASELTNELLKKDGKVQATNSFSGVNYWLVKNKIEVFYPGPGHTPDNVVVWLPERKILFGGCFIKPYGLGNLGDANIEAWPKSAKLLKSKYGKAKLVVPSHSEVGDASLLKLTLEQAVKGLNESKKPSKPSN
NDM-1, sequence (C7C422 29-270, looked up, species assumed): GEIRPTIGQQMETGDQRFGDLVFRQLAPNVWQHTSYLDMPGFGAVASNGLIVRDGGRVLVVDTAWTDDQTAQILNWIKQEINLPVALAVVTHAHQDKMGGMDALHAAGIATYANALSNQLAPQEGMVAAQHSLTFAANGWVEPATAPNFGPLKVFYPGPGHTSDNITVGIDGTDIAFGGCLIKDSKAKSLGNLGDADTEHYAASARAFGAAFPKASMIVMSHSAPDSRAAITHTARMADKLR

Structure (SMILES) | pIC50 [1] | pIC50 [2] | pIC50 [3] | NDM1 EC30016 MITC95 [4] [µM] | VIM1 KP599644 MITC95 [5] [µM] | IMP1 SM5741 MITC95 [6] [µM]
CCC[C@H](C(=O)O)[C@H](Cc1ccc(C2CCN(C(=N)N)C2)cc1)c1nnn[nH]1 (stereo partly drawn) [Example 414, (2S)-2-((1S)-2-(4-(1-carbamimidoylpyrrolidin-3-yl)phenyl)-1-(1H-tetrazol-5-yl)ethyl)pentanoic acid] | 6.67 | 7.16 | 8.82 | 4.688 | 12.5 | 9.375
CCC[C@H](C(=O)O)[C@H](Cc1ccc(C2CCN(C=N)C2)cc1)c1nnn[nH]1 (stereo partly drawn) [Example 415, (2S)-2-((1S)-2-(4-(1-(iminomethyl)pyrrolidin-3-yl)phenyl)-1-(1H-tetrazol-5-yl)ethyl)pentanoic acid] | 6.41 | 6.92 | 8.36 | 9.375 | 18.75 | 12.5
CCC[C@H](C(=O)[O-])[C@H](Cc1cc[n+](C)cc1)c1nnn[nH]1 [Example 417, (S)-2-((S)-2-(1-methylpyridin-1-ium-4-yl)-1-(1H-tetrazol-5-yl)ethyl)pentanoate] | 4.96 | 5.89 | 7.35 | 4.688 | 9.375 | 200
CCC[C@H](C(=O)[O-])[C@H](Cc1ccc(C2CC[N+](C)(C)C2)cc1)c1nnn[nH]1 (stereo partly drawn) [Example 418, (2S)-2-((1S)-2-(4-(1,1-dimethylpyrrolidin-1-ium-3-yl)phenyl)-1-(1H-tetrazol-5-yl)ethyl)pentanoate] | 5.70 | 6.39 | 7.51 | 18.75 | 25 | 37.5
CCC[C@H](C(=O)[O-])[C@H](Cc1ccc(C[N+](C)(C)C)cc1)c1nnn[nH]1 [Example 419, (S)-2-((S)-1-(1H-tetrazol-5-yl)-2-(4-((trimethylammonio)methyl)phenyl)ethyl)pentanoate] | 5.23 | 6.06 | 8.26 | 6.25 | 12.5 | 50
CC(C)(C)[C@H](C(=O)O)C(Cc1ccc(N)nc1)c1nnn[nH]1 (stereo partly drawn) [Example 420, (2R,3S)-4-(6-aminopyridin-3-yl)-2-(tert-butyl)-3-(1H-tetrazol-5-yl)butanoic acid] | 7.29 | 7.14 | 7.72 | 0.3906 | 2.344 | 1.563
CC(C)(C)[C@H](C(=O)O)[C@H](Cc1ccc(O)nc1)c1nnn[nH]1 [Example 421, (2R,3S)-2-(tert-butyl)-4-(6-hydroxypyridin-3-yl)-3-(1H-tetrazol-5-yl)butanoic acid] | 6.81 | 6.80 | 7.60 | 25 | 25 | 100
CC(C)(C)[C@H](C(=O)O)[C@H](Cc1ccc(NC(=N)N)nc1)c1nnn[nH]1 [Example 422, (2R,3S)-2-(tert-butyl)-4-(6-guanidinopyridin-3-yl)-3-(1H-tetrazol-5-yl)butanoic acid] | 6.98 | 6.64 | 8.40 | 12.5 | 6.25 | 25
CC(C)(C)[C@H](C(=O)O)[C@@H](Cc1cccc2sc(Br)nc12)c1nnn[nH]1 [Example 423, (2R,3R)-4-(2-bromobenzo[d]thiazol-4-yl)-2-(tert-butyl)-3-(1H-tetrazol-5-yl)butanoic acid] | 8.56 | 8.91 | 9.00 | 12.5 | 50 | 25
